Measurements as given in ChEMBL document CHEMBL3351421, “Novel styryl-indoles as small molecule inhibitors of 25-hydroxyvitamin D-24-hydroxylase (CYP24A1): Synthesis and biological evaluation” (Eur J Med Chem, 2014).

Target: T1, 1,25-dihydroxyvitamin D(3) 24-hydroxylase, mitochondrial (Homo sapiens, UniProt Q07973)
T1 sequence (Q07973 whole entry): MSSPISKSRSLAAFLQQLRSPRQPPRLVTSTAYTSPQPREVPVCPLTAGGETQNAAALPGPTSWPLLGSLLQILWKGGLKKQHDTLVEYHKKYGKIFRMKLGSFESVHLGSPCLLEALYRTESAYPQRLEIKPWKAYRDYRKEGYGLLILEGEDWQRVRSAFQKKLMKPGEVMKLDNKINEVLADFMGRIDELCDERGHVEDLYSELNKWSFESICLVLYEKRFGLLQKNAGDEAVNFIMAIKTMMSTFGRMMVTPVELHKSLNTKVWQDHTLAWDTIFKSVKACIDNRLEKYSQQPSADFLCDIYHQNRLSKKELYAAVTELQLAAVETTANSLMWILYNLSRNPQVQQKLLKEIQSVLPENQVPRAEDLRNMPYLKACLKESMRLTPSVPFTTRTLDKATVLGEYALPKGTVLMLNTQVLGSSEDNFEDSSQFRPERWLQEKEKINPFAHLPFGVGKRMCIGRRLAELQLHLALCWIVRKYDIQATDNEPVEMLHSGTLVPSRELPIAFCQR
Assay: Inhibition of N-terminally MBP-fused human CYP24A1 by cell-free assay

SMILES	IC50	Ki
COc1cc(/C=C/c2cccc3c2ccn3CCCCNS(=O)(=O)c2ccc(C)cc2)cc(OC)c1	10500 nM	740 nM
C(=C\c1cccc2c1ccn2CCCn1ccnc1)/c1ccccc1	360 nM	26 nM
Cc1ccc(S(=O)(=O)OCCCn2ccc3c(/C=C/c4ccccc4)cccc32)cc1	9000 nM	640 nM
Cc1ccc(S(=O)(=O)NCCCn2ccc3c(/C=C/c4ccccc4)cccc32)cc1	4800 nM	340 nM
COc1cc(/C=C/c2cccc3c2ccn3CCCCn2ccnc2)cc(OC)c1	190 nM	14 nM
C(=C\c1ccc2c(ccn2CCCn2ccnc2)c1)/c1ccccc1	520 nM	37 nM
Cc1ccc(S(=O)(=O)NCCCCn2ccc3c(/C=C/c4ccccc4)cccc32)cc1	3300 nM	230 nM
COc1cc(/C=C/c2cccc3c2ccn3CCCn2ccnc2)cc(OC)c1	440 nM	31 nM
O=S(OCCCn1ccc2c(/C=C/c3ccccc3)cccc21)c1ccccc1 (stereo unspecified)	7600 nM	540 nM
C(=C\c1cccc2c1ccn2CCCCn1ccnc1)/c1ccccc1	200 nM	14 nM
COc1cc(/C=C/c2cccc3c2ccn3CCCNS(=O)(=O)c2ccc(C)cc2)cc(OC)c1	10400 nM	730 nM
C(=C\c1ccc2c(ccn2CCCCn2ccnc2)c1)/c1ccccc1	520 nM	37 nM
COc1cc(/C=C/c2cccc3c2ccn3CCCOS(=O)(=O)c2ccc(C)cc2)cc(OC)c1	16900 nM	1190 nM
